*1 amine or outer side, *2 acyl side, *3 side chain or, on linkers, in order; H or OH if unused. Where a SMILES comes first, the peptide text is derived from it. [ ]: non-standard residue; d: D form. X1 = O=C(c1ccc(-c2ccc(N[*:1])cn2)nc1)[*:2]; βAla = NCCC(=O)O
How the values were obtained:
[1] = test system: nontransformed lung fibroblast (MRC-5); conditions: 48 h
Excerpt: (§1) IC50 is the concentration at which 50% growth inhibition is obtained and E max represents the efficacy of the compound at its maximum concentration, expressed as the maximum % cell inhibition achieved by the compound (see Section S6 and Figure S8 of the Supporting Information).
(§2) General method: cell lines and grown conditions
(§3) Non-small lung carcinoma NCI-H460, human colon carcinoma HCT-116, human glioma SF-268
(§4) and doxorubicin-resistance human mamma carcinoma NCI/ADR-RES cell lines, as well as
(§5) Eagle’s Minimal Essential Medium (EMEM) and RPMI1640 were purchased from the American Tissue Culture Collection (ATCC). Frozen cells were thawed in a 75 cm2 cell culture flask in RPMI
(§6) supplemented with 2 mM L-glutamine and 10% FBS and maintained at 37 °C in a 5% CO2
(§7) The inhibition of cell proliferation induced by the samples [1/Cu(II), 1 eq. cyclopeptide 1/3 eq. of
(§8) Cu(II); 2/Cu(II), 1 eq. cyclopeptide 2/5 eq. of Cu(II)]‚ was carried out by using MTT method for
(§9) HCT-116, NCI/ADR-RES and NCI-H460 cell lines. SF-268 cell growth inhibition induced by the
(§10) samples was assessed using a system based on crystal violet cell staining and subsequent
(§11) acetylation. Cells were seeded in a 96-well microplate (5000 cells/well for HCT-116, 10000
(§12) cells/well for SF-268 and 15000 cells/well for NCI/ADR-RES and NCI-H460 cell lines) in 100 μl
(§13) of growth medium and maintained at 37 °C for 24 h.
(§14) Then growth medium was replaced by fresh medium containing different concentrations of the
(§15) samples to be assayed and maintained at 37 °C in a 5% CO2 atmosphere for 48 h. After this
(§16) time, 10 μL MTT (5 mg/ml in PBS) were added to each well and maintained for 4 h at 37 °C in a
(§17) 5% CO2 atmosphere. Then 100 μL of 10% SDS in 0.01 M HCl were added to each well an
(§18) incubated for 12-14 h under the same experimental conditions. Absorbance due to formation
(§19) was detected in a Tecan infinity M1000 Pro reader using a wavelength of 595 nm. All assays
were performed with triplicate points.
b) Crystal violet cell staining
(§20) The samples dissolved in water were added, maintaining the same proportion of water in each
(§21) well (10%). After 72 h (at 37°C and in an atmosphere of 5% CO 2/95% air), the cells were fixed to
(§22) the plate with 10 μL of 11% glutaraldehyde solution, kept under agitation at room temperature,
(§23) for 15 minutes. Once fixed, the medium was removed and the cells were washed 3-4 times with
(§24) distilled water, followed by staining of the cells with 100 μL of a 0.1% crystal violet solution. This
(§25) solution was prepared by diluting 0.1g of crystal violet in 100 mL of buffer composed of 200 mM
(§26) phosphoric acid, 200 mM formic acid and 200 mM 2-(N-morpholino)-ethane sulphonic acid
(§27) (MES) at pH 6. The plate was kept shaking at room temperature for 15 minutes. The dye was
(§28) removed, washed 3-4 times with distilled water and dried. 100 μL of 10% acetic acid was then
(§29) added and kept under agitation for 15 minutes, at room temperature, so that the staining was
(§30) homogeneous in all wells. Finally, an absorbance reading of the plates was performed at a
(§31) wavelength of 595 nm (Tecan M1000 Infinite Pro). The assay was performed with triplicate points.
(§32) Data were expressed as the growth inhibition percentage calculated in basis on the equation: %
(§33) inhibition= 100 – [(AO × 100) / AT]. Where AT is the measured absorbance in wells containing
(§34) compounds and AO is the absorbance measured in blank wells (cells with medium and vehicle).
(§35) The inhibitory potency of compounds was calculated by constructing concentration-% growth
(§36) inhibition curves, and extrapolating IC50 values (concentration of compound that inhibits cells

[2] = test system: NCI/ADR-RES (doxorubicin resistant ovarian carcinoma); conditions: 48 h
Excerpt: as §1, §2, §3, §4, §5, §6, §7, §8, §9, §10, §11, §12, §13, §14, §15, §16, §17, §18, §19
were performed with triplicate points.
b) Crystal violet cell staining
as §20, §21, §22, §23, §24, §25, §26, §27, §28, §29, §30, §31, §32, §33, §34, §35, §36

[3] = test system: HCT-116 (colon carcinoma); conditions: 48 h
Excerpt: as §1, §2, §3, §4, §5, §6, §7, §8, §9, §10, §11, §12, §13, §14, §15, §16, §17, §18, §19
were performed with triplicate points.
b) Crystal violet cell staining
as §20, §21, §22, §23, §24, §25, §26, §27, §28, §29, §30, §31, §32, §33, §34, §35, §36

NCI/ADR-RES cells [4] = test: Intracellular ROS generation (ROS Assay Stain 1X); type: cell-based; conditions: 100 μM compound with 125 μM H2O2, 1-5 h and 24 h, 1/Cu(II) equimolar
Method: Measurement of intracellular ROS levels in NCI/ADR-RES cells treated with Cu(II) ions, cyclopeptide 1, or the 1/Cu(II) metallopeptide system confirmed a time-dependent increase in the level of ROS generation. In short, after 24 h of incubation, cells were stained with ROS Assay Stain 1× and treated with 100 μM Cu(II) (CuCl2·2H2O), cyclopeptide 1, or 1/Cu(II), along with 125 μM H2O2, and fluorescence was recorded (λex = 495/λem = 520 nm) every hour for the first 5 h and again at 24 h. The experiment with the metallopeptide system was conducted by using equimolar amounts of cyclopeptide 1 and Cu(II) to prevent an excess of free copper in the medium. […] The cytotoxicity of the metallopeptide systems appears to be closely linked to their ability to enhance intracellular oxidative stress via increased ROS production, likely driven by Cu(II) accumulation within the cells.
9.2. […]
NCI/ADR-RES cells were seeded in a 96 well plate (Thermo Scientific 165305) at a density of 2,5 x 10^5 cells/ml. […] The fluorescence was measured in a microplate reader every hour for the first 5 hours, and again at 24 hours after the addition of the compounds (λex= 495 nm / λem= 520 nm). […]
Figure S15. […] Fluorescence (λex= 495 nm / λem= 520 nm) was recorded every hour for the first 5 hours, and again at 24 hours after the addition of the compounds to assess intracellular ROS generation. […]

NCI/ADR-RES cells [5] = test: ICP-MS internalization study (intracellular Cu accumulation); type: cell-based; conditions: 1 µM compound, 48 h, metallopeptides 1 eq. cyclopeptide + 1 eq. Cu(II)
Method: To evaluate the ability of the Cu(II) metallopeptide systems to internalize in cancer cells, ICP-MS studies were performed in NCI/ADR-RES cells after 48 h of incubation with cyclopeptides 1 and 2, as well as their corresponding 1/Cu(II) and 2/Cu(II) metallopeptide derivatives formed by mixing each cyclopeptide with 1 equiv Cu(II), and using CuCl2·2H2O both as a Cu(II) source and a control.
7.1. General methods and materials
ICP Measurements were conducted employing an Agilent 7900 ICP-MS system (Agilent Technologies, Tokyo, Japan). The sample introduction system was comprised of an autosampler, a double-pass spray chamber with Peltier system, a glass concentric nebulizer (MicroMist low-flow nebulizer, Glass Expansion, West Melbourne, Australia), and a quartz torch.
Quantification of copper concentrations was achieved using Agilent ICP-MS MassHunter 5.1, (Version D.01.01 Agilent Technologies, Tokyo, Japan). The parameters for the ICP-MS device were as follows: RF Power, 1550 W; Sample Depth, 8; Carrier Gas, 1.1 L/min; Nebulizer Pump […]
Roswell Park Memorial Institute 1640 medium (RPMI), fetal bovine serum (FBS), penicillin, and streptomycin were purchased from Invitrogen Thermo Fisher.
Ovarian tumour NCI/ADR-RES cells, obtained from the European Collection of Authenticated Cell Cultures (ECACC), were cultured at 37 °C in a 5% CO2 atmosphere in RPMI medium containing 10% FBS and supplemented with 50 U/mL penicillin and 50 U/mL streptomycin, in 75 cm2 cell culture flasks. All cell experiments were performed at 37 °C in a 5% CO 2 atmosphere with this modified RPMI, referred as “medium” or “culture medium”.
7.3. […]
The culture medium was then replaced with 3 mL of fresh medium containing 1 µM of the compound [Cu(II) (CuCl₂·2H₂O), cyclopeptide ( 1 or 2), or metallopeptide system [1/Cu(II) or 2/Cu(II); 1 eq. cyclopeptide + 1 eq. […] Lysates were digested at 95 °C overnight, diluted with 1% HNO₃ to a final volume of 5 mL, and analyzed by ICP-MS. The Cu(II) content in the culture medium (3 mL) was also measured using the same technique, yielding a value of 41.46 ng. […]

[6] = test system: NCI-H460 (lung carcinoma); conditions: 48 h
Excerpt: as §1, §2, §3, §4, §5, §6, §7, §8, §9, §10, §11, §12, §13, §14, §15, §16, §17, §18, §19
were performed with triplicate points.
b) Crystal violet cell staining
as §20, §21, §22, §23, §24, §25, §26, §27, §28, §29, §30, §31, §32, §33, §34, §35, §36

Q: Which “E max (maximum % cell inhibition)” value [1] does the source give for `N=C(N)NCCC[C@@H]1NC(=O)c2ccc(nc2)-c2ccc(cn2)NC(=O)CCNC(=O)[C@H](CCCNC(=N)N)NC(=O)[C@H](CCCNC(=N)N)NC(=O)[C@H](CCCNC(=N)N)NC(=O)c2ccc(nc2)-c2ccc(cn2)NC(=O)CCNC(=O)[C@H](CCCNC(=N)N)NC(=O)[C@H](CCCNC(=N)N)NC1=O` [compound 1, cyclo-(βAlaBpy-Arg3)2] (cyclo([X1]RRR[βAla][X1]RRR[βAla])) here?
A: 24 ± 2%

Q: And the IC50 [1]?
A: > 100 µM

Q: What about the “E max (maximum % cell inhibition)” value [2] of the same compound?
A: 10 ± 2%

Q: What about the IC50 [2] of the same compound?
A: > 100 µM

Q: What about the “E max (maximum % cell inhibition)” value [3] of the same compound?
A: 27 ± 1%

Q: What about the IC50 [3] of the same compound?
A: > 100 µM

Q: And the “intracellular ROS levels (fluorescence)” value (NCI/ADR-RES cells [4])?
A: also promotes ROS generation, albeit to a lesser extent

Q: What about the “intracellular Cu(II) accumulation (ICP-MS)” value (NCI/ADR-RES cells [5]) of the same compound?
A: notably lower than that of the metallopeptide systems

Q: And the “E max (maximum % cell inhibition)” value [6]?
A: 32 ± 2%

Q: What about the IC50 [6] of the same compound?
A: > 100 µM

From PMC12128024, “Copper(II) Cyclopeptides with High ROS-Mediated Cytotoxicity” (Bioconjugate Chemistry, 2025)
